Test system: Luc-positive MonoMac-1 AML cells
Test: Luc-positive MonoMac-1 AML xenograft in NSG mice, bioluminescence imaging
Format: in vivo, NOD-scid IL2Rgamma null (NSG) mice
Details: 10 mg/kg intraperitoneally on days 3, 4, 5, 6, 7, 10 and 11, at day 12, in comparison to the control

## N,N-dimethyl 3-(10H-benz[b]indeno[2,1-d]thien-10-ylidene) -1-Propanamine [compound 87]
  amount of AML cells: remarkable reduction

From patent publication EP4000617A1, “COMPOSITIONS FOR USE IN THE TREATMENT OF LEUKAEMIA” (Fundació Institut de Recerca Contra la Leucèmia Josep …, priority 2020, dated 2022)
